Data on 30 compounds can be found in ChEMBL document CHEMBL5137086, “Discovery of 1-(Hetero)aryl-β-carboline Derivatives as IDO1/TDO Dual Inhibitors with Antidepressant Activity” (J Med Chem, 2022).

Structures are written as SMILES.

The IC50 is the concentration that gives 50% inhibition. One may read the inhibition as the relative decrease from the control value, in per cent.

Test [1] addresses T1, Indoleamine 2,3-dioxygenase 1 (Homo sapiens, UniProt P14902). The experiment in a line: Inhibition of IDO1 (unknown origin) assessed as reduction in kynurenine production using L-tryptophan as substrate incubated for 1 hr by absorbance based microplate reader analysis.
Target sequence in this assay (P14902 whole entry): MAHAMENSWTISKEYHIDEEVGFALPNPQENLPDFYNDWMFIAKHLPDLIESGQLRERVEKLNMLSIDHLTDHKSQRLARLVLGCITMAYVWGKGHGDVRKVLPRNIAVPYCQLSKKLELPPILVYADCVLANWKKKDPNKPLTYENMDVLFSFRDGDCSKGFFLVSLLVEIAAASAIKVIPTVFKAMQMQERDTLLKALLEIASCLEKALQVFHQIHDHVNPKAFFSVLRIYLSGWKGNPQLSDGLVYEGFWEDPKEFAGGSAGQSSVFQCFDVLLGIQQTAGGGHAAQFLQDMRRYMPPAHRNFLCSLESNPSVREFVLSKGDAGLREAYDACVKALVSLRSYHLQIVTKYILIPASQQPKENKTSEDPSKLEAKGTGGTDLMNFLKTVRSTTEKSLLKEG
For test [2], the target named is T2, Tryptophan 2,3-dioxygenase (Homo sapiens, UniProt P48775). The test is described as follows: Inhibition of TDO (unknown origin) assessed as reduction in N-formylkynurenine formation using L-tryptophan as substrate at 50 uM incubated for 75 mins by UV absorbance based analysis relative to control.
Target sequence in this assay (P48775 whole entry, looked up): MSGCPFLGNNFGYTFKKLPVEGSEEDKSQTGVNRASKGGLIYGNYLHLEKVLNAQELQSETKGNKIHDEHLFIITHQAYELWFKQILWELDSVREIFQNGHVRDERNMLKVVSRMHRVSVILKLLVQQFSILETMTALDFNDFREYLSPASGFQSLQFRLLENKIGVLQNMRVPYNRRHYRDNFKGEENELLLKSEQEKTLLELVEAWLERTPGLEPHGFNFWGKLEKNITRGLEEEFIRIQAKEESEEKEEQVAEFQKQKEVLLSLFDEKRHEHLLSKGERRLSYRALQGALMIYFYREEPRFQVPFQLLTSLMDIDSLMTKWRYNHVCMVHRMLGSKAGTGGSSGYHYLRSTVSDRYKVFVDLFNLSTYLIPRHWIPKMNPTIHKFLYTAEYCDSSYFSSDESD
In test [3] the target is T1, Indoleamine 2,3-dioxygenase 1. The test is described as follows: Inhibition of IDO1 (unknown origin) assessed as reduction in kynurenine production using L-tryptophan as substrate at 50 uM incubated for 1 hr by absorbance based microplate reader analysis relative to control.
Target sequence in this assay (P14902 whole entry, looked up): as the sequence (P14902 whole entry) above
In test [4] the target is T2, Tryptophan 2,3-dioxygenase. The experiment in a line: Inhibition of TDO (unknown origin) assessed as reduction in N-formylkynurenine formation using L-tryptophan as substrate incubated for 75 mins by UV absorbance based analysis.
Target sequence in this assay (P48775 whole entry): as the sequence (P48775 whole entry, looked up) above

Regarding `N#Cc1ccc(-c2nccc3c2[nH]c2ccccc23)cc1`, the figures for the IC50 in test [1] and in test [4] were more than 50 µM and 12 µM, respectively. Moreover, the results for the inhibition in test [2] and in test [3] were 75% and 53%, respectively.
Consider `Brc1ccc(-c2nccc3c2[nH]c2ccccc23)cc1`, for which the IC50 in test [1] was more than 50 µM. For the same compound, the inhibition in test [2] was found to be 5%; in test [3] it was 51%.
The matching figures for `Clc1cc(Cl)cc(-c2nccc3c2[nH]c2ccccc23)c1`: 16.5 µM, 8% and 75%.
As for `c1ccc2c(c1)[nH]c1c(-c3nccs3)nccc12`, the results for the inhibition in test [2] and in test [3] were 2% and 5%, respectively.
Take `FC(F)(F)c1cccc(-c2nccc3c2[nH]c2ccccc23)c1`: the inhibition is 88% in test [2] and 9% in test [3]. In addition, in test [4], the IC50 amounted to 5.39 µM.
In the case of `c1csc(-c2nccc3c2[nH]c2ccccc23)c1`, the values for the half-maximal inhibitory concentration (IC50) in test [1] and in test [4] were more than 50 µM and 10.8 µM, respectively. Moreover, the inhibition is 82% in test [2] and 61% in test [3].
Turning to `c1ccc2c(c1)[nH]c1c(-c3ccsc3)nccc12`, the inhibition was determined as 94% in test [2] and 34% in test [3]. Moreover, in test [4], the IC50 is 0.81 µM.
On to `O=[N+]([O-])c1cccc(-c2nccc3c2[nH]c2ccccc23)c1`, for which the IC50 in test [1] is 8.28 µM. The inhibition in test [2] turned out to be 6%; in test [3] it was 96%.
The corresponding values for `O=[N+]([O-])c1ccc(-c2nccc3c2[nH]c2ccccc23)cc1` are 8.44 µM, 3% and 94%.
In the case of `c1ccc2c(c1)[nH]c1c(-c3ncc[nH]3)nccc12`, the inhibition was found to be 4% in test [2] and 26% in test [3].
On to `Clc1cccc(-c2nccc3c2[nH]c2ccccc23)c1`, for which the values for the IC50 in test [1] and in test [4] were more than 50 µM and 13.4 µM, respectively. Moreover, the inhibition amounted to 88% in test [2] and 55% in test [3].
The corresponding values for `Clc1ccc(-c2nccc3c2[nH]c2ccccc23)cc1` are 7.58 µM, 8.29 µM, 81% and 86%.
On to `Fc1cc(-c2nccc3c2[nH]c2ccccc23)ccc1Br`, for which the IC50 in test [1] was 32.7 µM. In addition, the inhibition in test [2] worked out at 4%; in test [3], 71%.
As to `c1ccc2c(c1)[nH]c1cnccc12` [NORHARMANE], the figures for the inhibition in test [2] and in test [3] were 86% and 48%, respectively. The IC50 in test [4] worked out at 1.2 µM.
Take `Oc1ccc(-c2nccc3c2[nH]c2ccccc23)cc1`: the results for the inhibition in test [2] and in test [3] were 4% and 24%, respectively.
For `c1ccc2c(c1)[nH]c1c(-c3cnn[nH]3)nccc12`, the IC50 worked out at 13.9 µM in test [1] and 19.5 µM in test [4]. Further, the inhibition in test [2] was determined as 77%; in test [3] it was 91%.
On to `c1cncc(-c2nccc3c2[nH]c2ccccc23)c1`, for which the inhibition in test [2] was 89%; in test [3], 26%. In test [4], the IC50 came out at 2.14 µM.
Turning to `O=C1CC(c2c[nH]c3ccc(F)cc23)C(=O)N1` (stereo unspecified), in test [3], the inhibition is 92%.
For the compound `FC(F)(F)c1ccc(-c2nccc3c2[nH]c2ccccc23)cc1`, the results for the inhibition in test [2] and in test [3] were 5% and 13%, respectively.
The matching figures for `c1coc(-c2nccc3c2[nH]c2ccccc23)c1`: 37% and 33%.
`N#Cc1cccc(-c2nccc3c2[nH]c2ccccc23)c1`: the IC50 in test [1] is more than 50 µM; in test [4], 15.3 µM. Further, the inhibition came out at 78% in test [2] and 66% in test [3].
Take `c1ccc2c(c1)[nH]c1c(-c3ccoc3)nccc12`: the inhibition in test [2] was determined as 92%; in test [3], 5%. In test [4], the IC50 came to 1.14 µM.
Consider `c1ccc2c(c1)[nH]c1c(-c3ccncc3)nccc12`, for which the inhibition in test [2] came out at 36%; in test [3], 46%.
The matching figures for `Fc1ccc(-c2nccc3c2[nH]c2ccccc23)cc1`: 3% and 27%.
The corresponding values for `c1ccc2c(c1)[nH]c1c(-c3cscn3)nccc12` are 4% and 3%.
As for `Fc1cccc(-c2nccc3c2[nH]c2ccccc23)c1`, the inhibition in test [2] worked out at 86%; in test [3] it was 28%. The IC50 in test [4] came out at 10.9 µM.
The matching figures for `Cc1nccc2c1[nH]c1ccccc12` [HARMAN]: 85%, 34% and 6.31 µM.
The matching figures for `c1ccc(-c2nccc3c2[nH]c2ccccc23)cc1`: 86%, 7% and 7.24 µM.
Turning to `c1ccc2c(c1)[nH]c1c(-c3cc[nH]n3)nccc12`, the inhibition was 7% in test [2] and 34% in test [3].
Regarding `Brc1cccc(-c2nccc3c2[nH]c2ccccc23)c1`, the IC50 in test [1] is 4.95 µM; in test [4], 20.3 µM. The inhibition in test [2] turned out to be 65%; in test [3], 93%.
